This is an account of results in US8378117B2 (priority 2005, dated 2013).

SMILES strings stand for the structures. Like-named read-outs stand apart in the source and are kept apart here.

Broadly, the IC50 is the concentration needed to halve the response being measured. As a reminder, the EC50 is the concentration needed to bring the measured effect to its halfway point. A high value points to lower potency in that assay.

Assay [1] concerns the target T1, CB1 receptor (Homo sapiens, UniProt P21554).
T1 construct: expressed in transfected cells
The assay is described as follows: Binding assay for CB1 agonists or inverse agonists (SK-N-MC membranes, [3H]-CP-55,940). Conditions: for inhibition at 0.2 µM: read-out: CB1 receptor binding percent inhibition, test concentration 0.2 μM (footnote 2). The gist of the method: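 Radioligand displacement: [3H]-CP-55,940 at […], 90 min at 30° C, pH 7.5 Tris buffer with 0.5 mg/mL fatty-acid-free BSA, using semi-purified membranes of human-CB1-transfected SK-N-MC cells. Bound counts collected on GF/C filters, 10 uM WIN 55,212 for non-specific; IC50 from percent inhibition over several concentrations.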

The target of assay [2] is T1, CB1 receptor. The assay is described as follows: cell-based. Conditions: CB1 Receptor Functional Agonist EC50, SK-N-MC cells, forskolin induced β-galactosidase activity. The gist of the method: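 Read-out is forskolin-driven CRE-β-gal reporter activity in stably transfected human-CB1 SK-N-MC cells, normalised to vehicle (100%); agonism lowers, inverse agonism raises signal. Values are EC50 (linear regression, multiple concentrations) or % change at one concentration.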

For assay [3], the target named is T2, CB2 receptor (Homo sapiens, UniProt P34972).
T2 construct: expressed in transfected cells
T2 sequence (P34972 whole entry): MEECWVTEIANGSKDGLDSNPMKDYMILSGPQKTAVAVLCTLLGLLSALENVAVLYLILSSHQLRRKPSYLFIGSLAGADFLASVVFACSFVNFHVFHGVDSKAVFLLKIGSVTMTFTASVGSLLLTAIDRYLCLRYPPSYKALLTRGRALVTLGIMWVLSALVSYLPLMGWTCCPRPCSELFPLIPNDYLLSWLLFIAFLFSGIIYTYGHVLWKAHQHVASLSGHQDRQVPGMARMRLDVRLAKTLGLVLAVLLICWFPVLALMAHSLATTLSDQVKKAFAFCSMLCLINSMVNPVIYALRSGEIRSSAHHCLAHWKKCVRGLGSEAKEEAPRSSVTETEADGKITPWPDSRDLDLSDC
Briefly: Binding assay for CB2 agonists or inverse agonists (SK-N-MC membranes, [3H]-CP-55,940). The following applies: for IC50: Cannabinoid CB2 Receptor Binding IC50, calculated by linear regression from percent inhibition at various test concentrations. A digest of the protocol:
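IC50 came from percent-inhibition data over several compound concentrations, fitted by linear regression. Binding used semi-purified membranes of human CB2-transfected SK-N-MC cells, 90 min at 30 °C, pH 7.5 Tris-HCl with MgCl2, EDTA and BSA, then filtration and scintillation counting.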

Assay [4] deals with T2, CB2 receptor. The assay is described as follows: Modified binding assay, CB2 receptor in CHO cells, [3H]WIN 55212. The following applies: [3H]WIN 55212 0.8 nM, 120 minutes at 37° C. The procedure:
Additional receptor binding studies were performed with minor modifications as detailed below.
The human CB1 and CB2 receptors were stably expressed in CHO cells as described in Rinaldi-Carmona, M., Calandra, B., Shire, D., Bouaboula, M., Oustric, D., Barth, F., Casellas, P., Ferrara, P. and Le Fur, G. (1996) J. PharmacoL Exp. Ther., 278: 871-878 and Munro, S., Thomas, K. L. and Abu-Shaar, M. (1993) Nature, 365: 61-65, respectively. [^3H]CP 55940 (0.5 nM) was used as the radioligand for the CB1 receptor binding assay. [^3H]WIN 55212 (0.8 nM) was used as the radioligand for the CB2 receptor binding assay. Incubation was carried out for 120 minutes at 37° C.
The specific ligand binding to the receptors is defined as the difference between the total binding and the nonspecific binding determined in the presence of an excess of unlabelled ligand. The results are expressed as a percent of control specific binding ((measured specific binding/control specific binding)×100) obtained in the presence of the test compounds.
The IC50 values (concentration causing a half-maximal inhibition of control specific binding) were determined by non-linear regression analysis of the competition curves generated with mean replicate values using Hill equation curve fitting (where Y=specific binding, D=minimum specific binding, A=maximum specific binding, C=compound concentration, C50=IC50 and nH=slope factor): (Y=D+[(A−D)/(1+(C/C50)^nH)] CB1 and CB2 Receptor Binding Results
For compounds tested, an IC50 binding value was obtained from percent inhibition studies in which various test concentrations were used.

The mark [5] stands for this setting: Cannabinoid CB1 Receptor Binding IC50, calculated by linear regression from percent inhibition at various test concentrations.

T1 sequence (P21554 whole entry): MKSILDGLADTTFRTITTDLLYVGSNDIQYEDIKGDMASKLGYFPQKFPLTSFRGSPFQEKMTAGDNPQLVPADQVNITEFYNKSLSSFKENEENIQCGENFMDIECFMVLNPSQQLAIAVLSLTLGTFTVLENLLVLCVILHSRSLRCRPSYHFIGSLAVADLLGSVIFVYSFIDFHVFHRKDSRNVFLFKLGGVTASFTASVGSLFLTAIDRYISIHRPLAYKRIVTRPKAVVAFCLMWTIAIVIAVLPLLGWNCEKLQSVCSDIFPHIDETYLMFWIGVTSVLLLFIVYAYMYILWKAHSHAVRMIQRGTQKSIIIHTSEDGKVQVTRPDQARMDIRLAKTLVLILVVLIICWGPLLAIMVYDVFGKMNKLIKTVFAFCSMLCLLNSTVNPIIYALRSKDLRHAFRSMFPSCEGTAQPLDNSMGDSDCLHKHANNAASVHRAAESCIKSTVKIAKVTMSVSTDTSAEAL

As to `C[C@H](NS(=O)(=O)/C=C/c1n[nH]c2c1CCCCC2Cc1cccc(F)c1)c1ccccc1` (single isomer, unassigned) [Cpd 232, (2E)-2-[(8R*)-8-(3-fluoro-benzyl)-1,4,5,6,7,8-hexahydro-cycloheptapyrazol-3-yl]-ethenesulfonic acid [(1S)-1-phenyl-ethyl]-amide], the IC50 on CB1 receptor [1] (setting [5]) was 300 nM; on CB2 receptor [3], 60 nM. Also, at CB1 receptor [1], the inhibition at 0.2 µM was 0%. The same molecule registered an EC50 at CB1 receptor [2] greater than 5000 nM. At CB2 receptor [3] (test concentration 0.2 μM (footnote 2), 0.2 µM), the “CB2 receptor binding percent inhibition” value worked out at 81%.
In the case of `O=C(N[C@H](CO)c1ccccc1)c1n[nH]c2c1CCCCC2Cc1cccc(Cl)c1` (single isomer, unassigned) [Cpd 230, (8R*)-8-(3-chloro-benzyl)-1,4,5,6,7,8-hexahydro-cycloheptapyrazole-3-carboxylic acid [(1S)-2-hydroxy-1-phenyl-ethyl]-amide], the IC50 is 300 nM on CB1 receptor [1] (setting [5]), 92 nM at CB2 receptor [4] and 40 nM on CB2 receptor [3]. This molecule also showed an EC50 on CB1 receptor [2] of 1000 nM.
Turning to `C[C@H](NS(=O)(=O)/C=C/c1n[nH]c2c1CCCC/C2=C\c1ccc(Cl)cc1)c1ccccc1` [Cpd 237, (2E,8E)-2-[8-(4-chloro-benzylidene)-1,4,5,6,7,8-hexahydro-cycloheptapyrazol-3-yl]-ethenesulfonic acid [(1S)-1-phenyl-ethyl]-amide], the IC50 on CB1 receptor [1] (setting [5]) was 300 nM; at CB2 receptor [4] it was 690 nM; at CB2 receptor [3], 100 nM. Besides, the inhibition at 0.2 µM came out at 0% on CB1 receptor [1] and 64% on CB2 receptor [3] (test concentration 0.2 μM (footnote 2), read-out: CB2 receptor binding percent inhibition). At CB1 receptor [2], this molecule gave an EC50 of 1700 nM.
In the case of `O=C(N[C@H](CO)c1ccccc1)c1n[nH]c2c1CCCCC2Cc1cccc(Cl)c1` (single isomer, unassigned) [Cpd 231, (8S*)-8-(3-chloro-benzyl)-1,4,5,6,7,8-hexahydro-cycloheptapyrazole-3-carboxylic acid [(1S)-2-hydroxy-1-phenyl-ethyl]-amide], the IC50 on CB1 receptor [1] (read-out: Cannabinoid CB1 Receptor Binding IC50, calculated by linear regression from percent inhibition at various test concentrations) is 300 nM; at CB2 receptor [4], 1800 nM; on CB2 receptor [3] it was 200 nM. On CB1 receptor [2], this molecule came in with an EC50 greater than 5000 nM.
